Target: Phosphatidylinositol 4,5-bisphosphate 3-kinase catalytic subunit gamma isoform (Homo sapiens, UniProt P48736)
Assay: Inhibition of histidine-tagged recombinant human full length PI3Kgamma expressed in insect cells preincubated for 15 mins followed by addition of cold ATP/gamma32P-ATP measured after 15 mins in presence of MgCl2

Phosphatidylinositol 4,5-bisphosphate 3-kinase catalytic subunit gamma isoform, sequence (P48736 whole entry, canonical isoform): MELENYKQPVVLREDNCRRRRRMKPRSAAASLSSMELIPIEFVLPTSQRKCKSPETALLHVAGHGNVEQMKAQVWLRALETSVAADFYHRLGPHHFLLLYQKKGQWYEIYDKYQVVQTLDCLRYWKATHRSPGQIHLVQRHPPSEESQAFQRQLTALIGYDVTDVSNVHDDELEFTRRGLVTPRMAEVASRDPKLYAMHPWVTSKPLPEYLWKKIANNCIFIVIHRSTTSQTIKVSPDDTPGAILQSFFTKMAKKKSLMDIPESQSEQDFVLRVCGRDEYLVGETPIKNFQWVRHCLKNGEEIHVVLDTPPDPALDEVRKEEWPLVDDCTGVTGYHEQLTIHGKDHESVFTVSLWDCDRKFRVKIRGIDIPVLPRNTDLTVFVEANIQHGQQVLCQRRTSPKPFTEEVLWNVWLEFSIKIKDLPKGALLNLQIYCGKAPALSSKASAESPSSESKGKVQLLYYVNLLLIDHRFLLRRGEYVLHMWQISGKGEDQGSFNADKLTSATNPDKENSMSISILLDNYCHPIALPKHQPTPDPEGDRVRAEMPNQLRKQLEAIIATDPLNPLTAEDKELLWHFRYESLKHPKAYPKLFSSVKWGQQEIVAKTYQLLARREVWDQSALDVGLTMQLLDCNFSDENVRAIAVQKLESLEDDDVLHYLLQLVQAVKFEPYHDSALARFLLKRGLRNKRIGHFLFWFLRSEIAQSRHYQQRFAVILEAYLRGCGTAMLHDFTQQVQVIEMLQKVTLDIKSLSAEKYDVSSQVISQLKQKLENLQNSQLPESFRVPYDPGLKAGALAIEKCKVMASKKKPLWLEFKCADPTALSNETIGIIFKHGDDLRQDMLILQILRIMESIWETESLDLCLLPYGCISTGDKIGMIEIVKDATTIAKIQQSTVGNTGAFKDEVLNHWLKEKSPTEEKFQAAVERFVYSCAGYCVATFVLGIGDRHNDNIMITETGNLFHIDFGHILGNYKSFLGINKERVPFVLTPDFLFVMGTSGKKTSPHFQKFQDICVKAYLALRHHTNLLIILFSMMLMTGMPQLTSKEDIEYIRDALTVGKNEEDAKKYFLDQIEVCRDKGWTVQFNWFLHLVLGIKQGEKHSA

COc1ccc(-c2sc(NC(=O)C3CCCC3)nc2C)cc1S(=O)(=O)Nc1ccc(O)cc1 showed an IC50 of 1.05 µM.
With COc1ccc(-c2sc(NC(=O)C(C)(C)C)nc2C)cc1S(=O)(=O)Nc1ccc(O)cc1 the IC50 was 20 µM.
